Test results reported in patent US20160340656A1, “PEPTIDES DERIVED FROM GSE 24.2 FOR TREATING DISEASES CAUSED BY OXIDATIVE STRESS AND DAMAGE TO DNA” (CONSEJO SUPERIOR DE INVESTIGACIONES CIENTÍFICAS (CSIC), priority 2013, published 2016).

Columns and labels:
[1] = tested on: telomerase activity in VA13 cells; experiment: Telomerase activity (TRAP assay) in VA13 cells after peptide transfection; format: cell-based; conditions: 8 μg peptide
Method: FIG. 10. Determination of telomerase activity in VA13 cells after transfection of the peptides GSE4 and GSE5. In order to determine the effect of expression of peptides GSE4 and GSE5, VA13 cells were transfected through lipofection and 24 hours later a TRAP assay was performed for telomerase activity.
The other way of quantifying the activity of peptide GSE4 was to evaluate its ability to increase telomerase activity in VA13 cells. To do this, these cells were transfected with 8 μg of the two peptides GSE4 and GSE5. […], the cells were processed to test the telomerase activity by the TRAP method.

AT3189-P AT lymphoblasts = experiment: ROS levels by DHE and flow cytometry in AT lymphoblasts; format: cell-based, human; conditions: AT3189-P cells, three weeks after infection, DHE, versus AT736C control cells
Method: FIG. 3. Determination of ROS levels in AT cells: AT3189-P AT cells were infected with a lentiviral vector expressing GSE24.2 or a GFP empty vector and three weeks later were loaded with the DHE reagent that detects Reactive Oxygen Species (ROS) levels. AT736C cells were used as a control. Relative fluorescence of the three cell lines and the proportion of cells with maximum intensity were determined through flow cytometry using wavelengths of 518 nm absorption and 605 nm emission. The data are shown as relative percentage of cells that emit at this wavelength.
One of the characteristics of AT cells is an increase in free radical content. This is due to the failure of function of protein ATM, which is able to maintain the redox balance in normal cells when the cells are exposed to environmental stress such as in vitro culture. In order to verify if expression of GSE24.2 has some impact on the regulation of free radical levels, we used the compound dihydroethidium (Hydroethidine), which enables quantifying the levels of free radicals in living cells. […] Three weeks after infection, the cells were loaded with the DHE reagent for 30 minutes and the proportion of cells with different free radical content was determined by flow cytometry.

[2] = tested on: p38 MAP kinase (phosphorylated on Thr180/Try182) in AT719 cells; experiment: Levels of phosphorylated p38 by Western blot in AT cells; format: cell-based, human; conditions: three weeks after infection, control AT736 = 1
Text: FIG. 4. Determination of the levels of phosphorylation of p38 in AT cells: AT719-P AT cells were infected with a lentiviral vector expressing GSE24.2 or a GFP empty vector and three weeks later protein extracts were obtained. AT719-P AT cells infected with GSE24.2 were also used and the population with the maximum fluorescence was selected using a sorter (AT AT719-P GSE24.2 sorter). AT736C cells were used as a control. The proteins were resolved on polyacrylamide gels and transferred to nitrocellulose membranes. The membrane was hybridised with a polyclonal antibody against the protein p38 phosphorylated on Thr180/Try182 and non-phosphoryated protein as a loading control. The relative values between the phosphorylated and non-phosphorylated proteins obtained (using the NIH-Image program) for the control cell line were considered as 1 and the others referred to it.
One of the characteristics of AT patient cells is a higher activation of p38 MAP kinase due to the failure of function of the ATM protein. This increase in activation of p38 triggers the process of cell death in AT cells and therefore a reduction in the number of neuronal cells. […] The signal obtained in both hybridisations was quantified with the NIH-Image program and relative values between the phosphorylated and non-phosphorylated proteins obtained for the control cell line were considered as 1.

AT719 cells = experiment: Viability (MTS) in response to bleomycin in AT cells; format: cell-based, human; conditions: increasing concentrations of bleomycin, 72 hours, versus AT736C control
Method: FIG. 5. Determination of the viability in response to bleomycin in AT cells: AT719-P AT cells were infected with a lentiviral vector expressing GSE24.2 or a GFP empty vector and three weeks later they were treated with different doses of bleomycin. AT736C cells were used as a control. The cells were fixed after 72 hours of treatment and viability determined with the MTS reagent. The values represent the result of the test performed in triplicate and express the viability with respect to untreated cells.
Mutations in gene ATM sensitise cells of AT patients to treatment with ionizing radiation or radiomimetic drugs such as bleomycin. In order to verify if the protective effect induced by GSE24.2 in cells of AT patients also extends to radiomimetic agents, AT719 patient cells expressing pCMV-GFP-GSE24.2 or an empty vector expressing only GFP (GFP) were treated with increasing concentrations of bleomycin for 72 hours. After this time, cell viability was evaluated using MTS reagent. AT736C cells were used as a control.

Sequence	reactivation of telomerase activity [1]	ROS levels (AT3189-P AT lymphoblasts)	phosphorylated / non-phosphorylated p38 relative value [2]	viability after bleomycin (AT719 cells)
GFINLDKPSNP [GSE4]	much higher activity in reactivating telomerase activity			
GFINLDKPSNPSSHEVVAWIRRILRVEKTGHSGTLDPKVTGCLIVCIERATRLVK (GSE24.2; listed as Homo sapiens) [55-amino-acid peptide corresponding to the protein dyskerin; known from WO2007/090911]		reduced in AT3189-P GSE24.2 cells to values comparable to those found in the AT736C control cells	reduced significantly to levels similar to control cells	able to increase viability of AT719 cells to levels similar to control cells
